This note sets out measurements from PubChem BioAssay (NCI).

Some test systems named below: NCI-H23 lung; UACC-257 melanoma; SW-620 colon; ACHN renal; SF-268 CNS; NCI-H460 lung; OVCAR-3 ovarian; HCT-116 colon; LXFL 529 NSCLC; M19-MEL melanoma.
Common to all, as to test: NCI tumour cell line growth inhibition, 48 h

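Briefly, cells in 96-well plates were exposed to five compound concentrations for 48 h, and endpoints were estimated by linear interpolation. The concentration for 50% growth inhibition is given as GI50. TGI: concentration producing complete growth inhibition.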

With `CC(=O)[O-].O=C([CH-]C(=O)c1ccccc1)c1ccccc1.O=C([CH-]C(=O)c1ccccc1)c1ccccc1.[Sm+3]`, the GI50 in the assay with NCI-H23 lung was 3.1 µM; in the assay on UACC-257 melanoma, 5.66 µM; in the assay on SW-620 colon it was 2.71 µM; with ACHN renal it was 4.96 µM; in the assay with SF-268 CNS, 3.39 µM; with NCI-H460 lung, 2.54 µM. Also, the GI50 was 2.62 µM in the assay with OVCAR-3 ovarian and 5.05 µM with HCT-116 colon. For the same molecule, the TGI in the assay with NCI-H23 lung was 15.5 µM; with UACC-257 melanoma, 24.1 µM; in the assay with SW-620 colon, 23.5 µM; in the assay with ACHN renal, 25.3 µM; with SF-268 CNS, 24.5 µM; in the assay on NCI-H460 lung, 82.6 µM. Also, the TGI with OVCAR-3 ovarian stood at 13.3 µM; in the assay with HCT-116 colon, 18.2 µM.
On to `CC(=O)[CH-]C(C)=O.CC(=O)[CH-]C(C)=O.CC[O-].CC[O-].[Ti+4]`, for which the GI50 in the assay with UACC-257 melanoma, in the assay with SW-620 colon, in the assay with ACHN renal, with SF-268 CNS, in the assay with NCI-H460 lung and in the assay on OVCAR-3 ovarian was above 100 µM in each case. The GI50 in the assay on LXFL 529 NSCLC is above 100 µM. Moreover, the TGI in the assay with UACC-257 melanoma, in the assay with SW-620 colon, with ACHN renal, in the assay with SF-268 CNS, with NCI-H460 lung and with OVCAR-3 ovarian was above 100 µM each time. The same molecule returned a TGI in the assay on LXFL 529 NSCLC above 100 µM.
On to `Cc1cccc(Cc2cnc(NC(=O)CCc3ccc(C)o3)s2)c1`, for which the GI50 was 0.593 µM in the assay with NCI-H23 lung; 15.4 µM in the assay on UACC-257 melanoma; 0.142 µM in the assay with SW-620 colon; 0.526 µM in the assay with ACHN renal; 0.903 µM in the assay with SF-268 CNS; 0.263 µM with NCI-H460 lung. Further, the GI50 is 0.192 µM in the assay with OVCAR-3 ovarian and 0.242 µM in the assay on HCT-116 colon. The TGI in the assay with NCI-H23 lung, in the assay with UACC-257 melanoma, in the assay on SW-620 colon, in the assay on ACHN renal, in the assay with SF-268 CNS and in the assay with NCI-H460 lung was above 100 µM each time. The values for the TGI in the assay on OVCAR-3 ovarian and in the assay on HCT-116 colon were 0.731 µM and above 100 µM, respectively.
As for `O=C(/C=C\c1cccc2ccccc12)c1cccc2ccccc12`, the GI50 in the assay with NCI-H23 lung is 2.09 µM; in the assay on SW-620 colon, 2.7 µM; in the assay with SF-268 CNS it was 4.74 µM; in the assay on OVCAR-3 ovarian, 12.5 µM; in the assay on LXFL 529 NSCLC, 2.9 µM; in the assay on HCT-116 colon, 3.36 µM. Moreover, the TGI came to 8.96 µM in the assay with NCI-H23 lung; 29.9 µM in the assay with UACC-257 melanoma; 10.6 µM in the assay on SW-620 colon; 24.1 µM with ACHN renal; 22.1 µM in the assay with SF-268 CNS; 33.6 µM in the assay with M19-MEL melanoma. For the same molecule, the TGI turned out to be 25.3 µM in the assay with OVCAR-3 ovarian, 13.6 µM in the assay on LXFL 529 NSCLC and 13.4 µM with HCT-116 colon.
Take `NC(=S)NN=C1CSSC1`: the GI50 with NCI-H23 lung was 3.78 µM; with UACC-257 melanoma, 1.93 µM; in the assay on SW-620 colon it was 8.06 µM; in the assay on ACHN renal, 3.05 µM; in the assay with SF-268 CNS, 3.61 µM; in the assay with NCI-H460 lung it was 1.61 µM. For the same molecule, the GI50 was 2.54 µM with OVCAR-3 ovarian and 2.78 µM in the assay on HCT-116 colon. For the same molecule, the TGI was 35.5 µM in the assay with NCI-H23 lung; 17.8 µM with UACC-257 melanoma; above 100 µM with SW-620 colon; 31.7 µM in the assay with ACHN renal; 13.8 µM in the assay with SF-268 CNS; 6.49 µM in the assay on NCI-H460 lung. Moreover, the TGI in the assay with OVCAR-3 ovarian came to 10.5 µM; with HCT-116 colon, 11.8 µM.
Regarding `Cn1cccc1/C=C/c1cc(Br)c(/C=C/c2cccn2C)cc1Br`, the TGI was above 100 µM with UACC-257 melanoma; 56.3 µM in the assay on SW-620 colon; 26.1 µM with ACHN renal; 91.9 µM in the assay with SF-268 CNS; 53.7 µM with M19-MEL melanoma; 45.9 µM in the assay on NCI-H460 lung. Moreover, the TGI in the assay on OVCAR-3 ovarian was 33.6 µM; in the assay on LXFL 529 NSCLC, 25 µM; in the assay on HCT-116 colon it was 43.4 µM.
Turning to `COc1ccccc1C(=O)N(C)c1ccc(Cl)c(C(=O)OC(C)C)c1`, the TGI in the assay with NCI-H23 lung, with UACC-257 melanoma, in the assay with SW-620 colon, in the assay on ACHN renal, in the assay on SF-268 CNS and with NCI-H460 lung was above 100 µM each time. Besides, the TGI with OVCAR-3 ovarian and in the assay on HCT-116 colon was above 100 µM each time.
Turning to `O=C(c1ccccc1)c1c(C(F)(F)F)n([O-])c2ccc(C(F)(F)F)cc2[n+]1=O`, the GI50 in the assay on NCI-H23 lung is 0.503 µM; in the assay with UACC-257 melanoma, 0.295 µM; with SW-620 colon, 0.135 µM; with ACHN renal, 0.102 µM; in the assay with SF-268 CNS it was 0.195 µM; in the assay with NCI-H460 lung it was 0.232 µM. Moreover, the GI50 was 0.252 µM in the assay with OVCAR-3 ovarian and 0.138 µM in the assay on HCT-116 colon. The TGI in the assay with NCI-H23 lung was determined as 1.13 µM; in the assay on UACC-257 melanoma, 0.968 µM; in the assay on SW-620 colon, 0.279 µM; with ACHN renal, 0.26 µM; in the assay with SF-268 CNS, 0.449 µM; in the assay on NCI-H460 lung, 0.587 µM. In addition, the TGI in the assay with OVCAR-3 ovarian amounted to 0.66 µM; in the assay on HCT-116 colon, 0.27 µM.
For `CCN(CC)CCNC(=O)c1cccc2nc3ccccc3nc12`, the TGI was 31.8 µM in the assay with NCI-H23 lung; 27.7 µM in the assay on UACC-257 melanoma; above 47.1 µM in the assay with SW-620 colon; above 100 µM in the assay on ACHN renal; 36.9 µM with SF-268 CNS; above 50 µM in the assay with OVCAR-3 ovarian. Further, the TGI in the assay with LXFL 529 NSCLC was above 87.9 µM; with HCT-116 colon, 45.6 µM.
On to `CN(C)CC/C(=N\Nc1ccc(Cl)cc1Cl)c1ccccc1`, for which the TGI in the assay with NCI-H23 lung was determined as 31.6 µM; in the assay on UACC-257 melanoma, 30.1 µM; with SW-620 colon, 29.5 µM; with ACHN renal it was 29.4 µM; in the assay with M19-MEL melanoma, 31.5 µM; with NCI-H460 lung it was 28.3 µM. Also, the TGI with OVCAR-3 ovarian was found to be 27 µM; in the assay with LXFL 529 NSCLC it was 25.9 µM; in the assay with HCT-116 colon, 27.9 µM.
On to `CC[C@H](C)C(=O)O[C@H]1C[C@H](O)C=C2C=C[C@H](C)[C@H](CC[C@@H](O)C[C@@H](O)CC(=O)O)[C@H]21`, for which the GI50 in the assay on NCI-H23 lung, in the assay on UACC-257 melanoma, with SW-620 colon, in the assay with ACHN renal, in the assay on SF-268 CNS and with NCI-H460 lung was above 100 µM in each case. Also, the GI50 with OVCAR-3 ovarian and in the assay on HCT-116 colon was above 100 µM each time. For the same molecule, the TGI in the assay with NCI-H23 lung, in the assay with UACC-257 melanoma, in the assay on SW-620 colon, in the assay on ACHN renal, in the assay on SF-268 CNS and with NCI-H460 lung was above 100 µM throughout. The TGI in the assay with OVCAR-3 ovarian and in the assay on HCT-116 colon was above 100 µM throughout.
